Where only a bound is given, the exact number is not on record here.

In data set [1] the target is T1, MHPH6 (Microbacterium maritypicum, UniProt D6R8X8).
T1 construct: expressed in transfected cells; host or cells: E. coli BLR transformed with pSHP11H (pTTQ18 derivative), IPTG-induced
T1 sequence (D6R8X8 with tags, fused parts or gaps): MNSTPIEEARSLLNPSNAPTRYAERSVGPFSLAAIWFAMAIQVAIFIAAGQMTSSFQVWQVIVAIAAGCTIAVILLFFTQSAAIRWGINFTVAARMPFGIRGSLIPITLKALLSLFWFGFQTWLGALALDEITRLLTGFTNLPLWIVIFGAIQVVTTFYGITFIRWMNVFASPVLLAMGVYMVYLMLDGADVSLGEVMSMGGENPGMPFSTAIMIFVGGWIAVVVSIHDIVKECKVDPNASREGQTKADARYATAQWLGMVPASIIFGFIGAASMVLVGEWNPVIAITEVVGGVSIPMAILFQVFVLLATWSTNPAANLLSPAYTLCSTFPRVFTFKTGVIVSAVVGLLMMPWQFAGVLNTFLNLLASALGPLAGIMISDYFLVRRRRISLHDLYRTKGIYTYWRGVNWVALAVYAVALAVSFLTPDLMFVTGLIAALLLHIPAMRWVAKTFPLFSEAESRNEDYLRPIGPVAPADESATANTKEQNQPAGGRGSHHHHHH
The experiment in a line: Substrate screening: competitive inhibition of 3H-L-BH uptake by E. coli BLR/pSHP11H. In kind it is cell-based, Microbacterium liquefaciens AJ3912. Conditions: for competitive inhibitory activity against L-BH uptake (in words): 250 μM cold candidate; for competitive inhibitory activity against L-BH uptake (in words) / uptake activity of 3H-L-BH (relative activity, no compound added = 100%): uptake after 3 minutes; for uptake activity of 3H-L-BH (relative activity, no compound added = 100%): 250 μM cold compound; for relative affinity for MHPH6 (affinity of L-BH = 1): curve-fitted assuming simple competitive inhibition, variety of concentrations. The procedure: 25 μM of ^3H-L-BH was employed as the RI-labeled substrate in the above-described reaction using intact cells, and a reaction liquid was prepared by adding 250 μM of a candidate substrate (cold). The uptake amount of ^3H-L-BH after 3 minutes from the addition thereof was compared with the amount without the candidate substrate, to calculate the competitive inhibitory activity of each candidate substrate against L-BH, for evaluating the potentiality of each candidate substance as the substrate for MHP.
Affinity of a variety of compounds to MHPH6 was measured based on the competitive inhibitory activity thereof against L-BH uptake by E. coli BLR/pSHP11H, to search for substrates for MHPH6 (FIG. 8). […] When the four compounds showing strong inhibitive activity were added, the uptake activities of ^3H-L-BH (the relative activity with respect to when not adding any compound as 100%) were 7% (L-BH, theoretical value 9%), 47% (D-BH), 3% (L-IMH) and 24% (D- IMH).
The competitive inhibition experiments were carried out, as for substrate screening, with a variety of substrate concentrations. As a result, the affinity of D- and L-BH and D- and L-IMH for MHPH6 was different from one another, and the intensity of the affinity was in the order of L-IMH (solid triangle), L-BH (solid circle), D-IMH (open triangle) and D-BH (open circle) from the strongest. Assuming that ^3H-L-BH and the added cold compound were under simple competitive inhibition, the experimental results were curve-fitted. As a result, the relative affinity for each compound was calculated to be 5.32 (L-IMH), 1.05 (L-BH, experimental value), 0.96 (D-IMH), and 0.20 (D-BH), with respect to the affinity of L-BH and MHPH6 being 1.

The target of data set [2] is T1, MHPH6. The experiment in a line: Uptake assay using intact cells of E. coli BLR/pSHP11H (RI-labelled substrate). In kind it is cell-based. Conditions: for initial uptake rate / uptake amount 5 minutes after the addition of the substrate: induced E. coli BLR/pSHP11H, 25 μM substrate; for initial uptake rate: data at 15 seconds after substrate addition; for uptake amount 5 minutes after the addition of the substrate: pH 6.6, 25° C., per dry cell weight. From the text:
The activity of the hydantoin transporter can be measured by an uptake assay using intact cells. The uptake assay using intact cells may be carried out in accordance with the method of West, and Henderson (I. C. West (1970) Lactose transport coupled to proton movements in Escherichia coli, Biochem. Biophys. Res. Commun. 41: 655-661; P. J. F. Henderson and A. J. S. Macpherson (1986), Assay, genetics, proteins, and reconstitution of proton-linked galactose, arabinose, and xylose transport systems of Escherichia coli, Methods Enzymol. 125: 387-429).
Specifically, the uptake reaction may be carried out by adding an RI-labelled substrate (^3H—BH (benzyl hydantoin), ^3H—IMH (indolylmethyl hydantoin)) to a suspension of the cells that express the hydantoin transporter. After initiating the reaction, sampling may be conducted at time intervals. Immediately after sampling, each aliquot may be collected by a filter of 0.45 μm pore size (preincubated in a washing liquid of 150 mM KCl, 5 mM MES (pH 6.6)) and washed thoroughly by the rinsing liquid. Thereafter, by measuring radioactivity remaining on the filter with a liquid scintillation counter, the substrate uptaken into the cells is quantified, and the hydantoin-transporter activity can be determined.
The methods of West (I. C. West (1970), Lactose transport coupled to proton movements in Escherichia coli. Biochem. Biophys. Res. Commun. 41: 655-661.) and Henderson (P. J. F. Henderson and A. J. S. Macpherson (1986), Assay, genetics, proteins, and reconstitution of proton-linked galactose, arabinose, and xylose transport systems of Escherichia coli, Methods Enzymol. 125: 387-429.) were employed.
The collected cells were washed three times with 150 mM KCl, 5 mM MES (2-[N-Morpholino]ethanesulphonic acid) (pH 6.6) and were then used in the assay. The basic reaction conditions included uptake initiation by adding glycerol to a final concentration of 20 mM to a cell suspension having an absorbance at about A680 of approximately 2 to 4, followed by aeration at 25° C. for 3 minutes, and then addition of an RI-labelled substrate (relative RI activity: ^3H—BH 107 Bq/nmol, ^3H—IMH 241 Bq/nmol) to a final concentration of 25 μM. After the onset of the reaction (aeration was continued), sampling was done over time. Immediately after the sampling, each aliquot was passed through a filter with a pore size of 0.45 μm (pre-incubated in a washing solution of 150 mM KCl and 5 mM MES (pH 6.6)) which was then washed sufficiently with a washing solution. The radiation remaining on the filter was measured by a liquid scintillation counter. The uptake activity was expressed in terms of the dry cell weight that was calculated by taking the absorbance A680=1 as the dry cell concentration of 0.68 mg/ml (Ashworth and Kornberg, Biological Science, 165(999):179-188 (1966)). Furthermore, the initial uptake rate was calculated based on the data obtained at 15 seconds after the addition of substrate, and expressed in terms of the uptake amount per minute.
In the measurement of the inhibitory activity of the inhibitor, the inhibitor was added at the time of onset of aeration. That is, it was pre-incubated with the cells for 3 minutes prior to the substrate addition. The inhibitor used was 2,4-dinitrophenol (DNP), and the final concentration during the reaction was 20 mM.
For varying the pH of the reaction liquid, 10 mM potassium acetate (pH 4.0), 5 mM MES (pH 4.9, 6.1, 6.6, 7.1, 7.9), 10 mM Tris-HCl (pH 8.0) and 10 mM glycin-NaOH (pH 10.0) were used when appropriate.

The nature of data set [3]: CD spectroscopy heat stability of purified MHPH6. In kind it is physicochemical. As for the experimental part: The buffer solution suspending the purified MHPH6 was replaced by 10 mM sodium phosphate (pH 7.6) with 0.05% (w/v) DDM, using an ultrafiltration apparatus (Centricon C50, Millipore). In this buffer solution, the protein concentration was adjusted to 50 μg/ml, and the CD spectroscopy was carried out at 10° C. (JASCO J-715 Spectropolarimeter). The measurement was performed at a wavelength ranging from 190 to 260 nm, and the average value of twenty measurements was taken. Furthermore, the change in the secondary structure of MHPH6 (heat stability) was observed by measuring the change of the CD unit value at a wavelength of 222 nm as the temperature of the sample was varied from 10° C.→90° C.→10° C. (the temperature change was made 10° C. at a time, and the length of time at each temperature was approximately 10 minutes).

The mark [4] stands for this setting: CD at 222 nm, 10 mM sodium phosphate pH 7.6, 0.05% DDM.

With `CC(C)CC1NC(=O)NC1=O` (racemic) [5-DL-isobutyl hydantoin], the “competitive inhibitory activity against L-BH uptake (in words)” value (shortened to “competitive inhibitory activity”) in data set [1] (25 μM 3H-L-BH) is on record as “Weaker inhibitory activity”.
On to `CC(C)C1NC(=O)NC1=O` (racemic) [5-DL-isopropyl hydantoin], for which the “competitive inhibitory activity” value in data set [1] (25 μM 3H-L-BH) is given as “Weaker inhibitory activity”.
Still for that read-out and setting: in the case of `CC1NC(=O)NC1=O` (racemic) [5-DL-methyl hydantoin] it was “Weaker inhibitory activity”; in that of `O=C1NC(=O)C(Cc2ccc(O)cc2)N1` (racemic) [5-DL-p-hydroxybenzyl hydantoin], “Weaker inhibitory activity”.
As for `CC(C)C[C@@H]1NC(=O)NC1=O` [5-L-isobutyl hydantoin], the “competitive inhibitory activity” value in data set [1] (25 μM 3H-L-BH) was “Weaker inhibitory activity”.
In the case of `CC(C)[C@@H]1NC(=O)NC1=O` [5-L-isopropyl hydantoin], the “competitive inhibitory activity” value in data set [1] (25 μM 3H-L-BH) is listed as “Weaker inhibitory activity”.
For `O=C1NC(=O)[C@@H](Cc2ccccc2)N1` [D-BH], in data set [1] (25 μM 3H-L-BH), the “competitive inhibitory activity” value is recorded as “strong activity of competitive inhibition” and the “uptake activity of 3H-L-BH (relative activity, no compound added = 100%)” value amounted to 47%. The “relative affinity for MHPH6 (affinity of L-BH = 1)” value (shortened to “relative affinity for MHPH6”) in data set [1] is 0.20.
For `O=C1NC(=O)[C@@H](Cc2c[nH]c3ccccc23)N1` [D-IMH], in data set [1] (25 μM 3H-L-BH), the “competitive inhibitory activity” value was “strong activity of competitive inhibition” and the “uptake activity of 3H-L-BH (relative activity, no compound added = 100%)” value is on record as 24%. Also, the “relative affinity for MHPH6” value in data set [1] was 0.96.
Regarding `O=[N+]([O-])c1ccc(O)c([N+](=O)[O-])c1` [DNP, 2,4-dinitrophenol, reference compound], the “effect on L-IMH uptake, induced sample” value in data set [2] (DNP 20 mM, pre-incubated 3 minutes, induced sample) is on record as “decreased the amount of L-IMH uptake”. Moreover, the “effect on L-IMH uptake, uninduced sample” value in data set [2] (DNP 20 mM, pre-incubated 3 minutes, uninduced sample) is recorded as “substantially no effect”.
On to `O=C1NC(=O)C(Cc2ccccc2)N1` [L-BH, 5-L-benzyl hydantoin], for which, in data set [2], the initial uptake rate was 0.64 nmol/mg/min and the “uptake amount 5 minutes after the addition of the substrate” value is recorded as 0.27 nmol/mg. Further, the “uptake activity of 3H-L-BH, theoretical value” in data set [1] (250 μM cold L-BH, 25 μM 3H-L-BH) came out at 9%. In data set [1] (25 μM 3H-L-BH), the “competitive inhibitory activity” value is “strong activity of competitive inhibition” and the “uptake activity of 3H-L-BH (relative activity, no compound added = 100%)” value is 7%. In addition, the “relative affinity for MHPH6” value in data set [1] is on record as 1.05.
With `O=C1NC(=O)[C@H](Cc2c[nH]c3ccccc23)N1` [L-IMH, 5-L-indolylmethyl hydantoin], in data set [2], the initial uptake rate turned out to be 2.5 nmol/mg/min and the “uptake amount 5 minutes after the addition of the substrate” value came out at 0.91 nmol/mg. Moreover, the “initial uptake rate as compared with the initial rate at pH 6.6” value in data set [2] (pH 4.0) is given as “approximately 10%”. Further, the “initial uptake rate as compared with the initial rate at pH 6.6” value in data set [2] (pH 10.0) is on record as “approximately 10%”. For the same molecule, in data set [2] (pH varied between 4.0 and 10.0, induced and uninduced samples), the “pH at which initial uptake rate is maximal” value turned out to be 6.6. In data set [2] (ratio L-IMH / L-BH), the “initial uptake rate, L-IMH relative to L-BH” value is recorded as 3.9 times and the “uptake amount 5 minutes after addition of substrate, L-IMH relative to L-BH” value is on record as 3.4 times. Further, in data set [1] (25 μM 3H-L-BH), the “competitive inhibitory activity” value was “strong activity of competitive inhibition” and the “uptake activity of 3H-L-BH (relative activity, no compound added = 100%)” value was 3%. For the same molecule, in data set [1] (L-IMH versus L-BH), the “affinity relative to that of L-BH (estimated)” value is recorded as “approximately 5 times”. Moreover, in data set [1], the “relative affinity for MHPH6” value was found to be 5.32.
Consider `NC(=O)NC1NC(=O)NC1=O` (centres unmarked) [allantoin, reference compound], for which the “competitive inhibitory activity” value in data set [1] (25 μM 3H-L-BH) is “did not result in any inhibition”.

B1: MHPH6: MHP hydantoin transporter protein containing the RGSHis6-Tag at the C-terminal (SEQ ID No. 3/4) (protein)
chain: T1 sequence (D6R8X8 with tags, fused parts or gaps)
modifications: C-terminal RGSHis6 tag; RGSH6
Turning to B1, in data set [3] (setting [4]), the “temperature at which higher structure began to be destroyed” value was at least 30 °C and the “temperature at which higher structure was almost completely destroyed” value was 70 °C. Also, the “reversibility of thermal denaturation” value in data set [3] (temperature 10→90→10° C.) was “irreversible”.
